Series [1] in a line: Exploratory water solubility in 10 mM Tris-HCl buffer, pH 7.4. It counts as physicochemical. To be noted: aqueous buffer (10 mM Tris-HCl), 20 °C. The protocol:
The exploratory water solubility of the compounds is determined at room temperature (20 °C) in 0.5 mL buffer solution (10 mM Tris-HCl, pH 7.4) in the microcentrifuge tubes (Eppendorf, 2.0 mL safe-lock caps). The solid compounds were added stepwise to the buffer solution. More substance is added once all the suspended material is dissolved until an equilibrium between undissolved and dissolved substance is reached. The suspension was mixed using a shaker (Heidolph Reax 2000) and treated 5 min in an ultrasound bath (Bandelin, Sonorex Super RK255H). The Gadolinium concentration of the test substance in the clear solution is measured by ICP-MS.

Series [2] concerns the target T1, OATP1B3 (Homo sapiens, UniProt Q9NPD5).
T1 construct: expressed in transfected cells
T1 sequence (Q9NPD5 1-702): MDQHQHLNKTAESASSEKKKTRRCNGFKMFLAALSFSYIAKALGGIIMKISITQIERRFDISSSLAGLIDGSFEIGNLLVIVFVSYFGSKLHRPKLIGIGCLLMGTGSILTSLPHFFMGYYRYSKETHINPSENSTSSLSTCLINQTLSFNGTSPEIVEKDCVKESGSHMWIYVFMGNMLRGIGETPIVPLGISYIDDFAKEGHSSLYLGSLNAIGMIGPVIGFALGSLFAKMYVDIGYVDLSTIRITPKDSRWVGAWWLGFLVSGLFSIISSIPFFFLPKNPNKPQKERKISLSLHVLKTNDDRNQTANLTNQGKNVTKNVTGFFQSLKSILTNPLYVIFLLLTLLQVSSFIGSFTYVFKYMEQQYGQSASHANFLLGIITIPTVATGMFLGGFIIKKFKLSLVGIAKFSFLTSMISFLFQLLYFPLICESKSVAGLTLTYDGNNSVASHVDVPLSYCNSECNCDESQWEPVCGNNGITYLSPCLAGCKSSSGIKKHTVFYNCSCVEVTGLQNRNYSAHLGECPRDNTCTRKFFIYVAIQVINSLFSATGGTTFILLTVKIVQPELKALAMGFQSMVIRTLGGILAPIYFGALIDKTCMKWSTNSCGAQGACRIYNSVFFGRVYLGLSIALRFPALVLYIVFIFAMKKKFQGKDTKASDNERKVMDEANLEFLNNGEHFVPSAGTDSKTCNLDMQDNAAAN
The series is described as follows: Uptake into stable transfected OATP1B3 HEK 293 cells. The class given is cell-based. To be noted: 100 μM, 40 min, relative to RC1 (Gd-EOB-DTPA). The protocol:
Human transfected OATP1B3 human embryonic kidney 293 cells (OATP1B3 HEK 293, SLCO1B3, Entrez Gene ID: 28234) were used (Leonhardt M et al. Drug Metab Dispos. 2010 July; 38(7):1024-8). The following culture medium was used: 500 mL DMEM (Dulbecco's Modified Eagle Medium—high Glucose, D6429), 50 mL FCS (fetal bovine serum, Fa. Sigma, F7524), 5.8 mL G418 (Geneticin, Fa. Gibco 10131-027) and 5 mL Pen-Strep. (Penicillin-Streptomycin, Fa. Gibco, Ref 15140-122). Cryopreserved cells were shortly thawed in water bath and diluted in 10 mL warm culture medium (37 °C). After medium change the cells were grown for 3d in a 25 cm^2 cell culture flask. After 3 to 5d the cells were transferred into 75 cm^2 flasks. For the splitting of cells these were incubated with 1.5 mL trypsin (Trypsin-EDTA (1×) 0.05%, Ref 25300-054 100 ml, Fa. Gibco) for 3-5 min in the incubator (37 °C, 5% CO2 and 95% oxygen). After centrifugation and washing with medium the cells were counted (50 μL cell suspension and 50 μL trypan blue (Trypan Blue Solution, 93595-50 ml, Fa. Fluka). Cells were cultured (1×10^5 cells/well) in poly-D-lysine coated 24-well plates (Fa. Corning, Ref: 354414) in 1.5 mL medium per well. After 48 hours in the incubator the medium was changed and 1.5 mL/well sodium butyrate containing medium were added (40 mL culture medium plus 400 μL Na-Butyrate, Fa. Sigma Aldrich B5887-5G, 250 mg in 2.27 mL MilliQ water). After 24 hours in the incubator the medium was vacuumed off and 1.5 mL transport buffer was added and incubated for 10 min. The transport buffer contains the following ingredients: 500 mL HBSS (Hank's balanced salt solution, Hyclone, SH30268.01), 5 mL HEPES buffer (4-(2-hydroxyethyl)-1-piperazine-ethanesulfonic acid, Gibco 15630-056) and 3.9 mL glucose (Sigma, G8270-100, 90 g/200 mL MilliQ water). All test items were prepared in transport buffer at a final concentration of 100 μM from stock solutions (180 to 500 mM concentration). The OATP1B3 HEK 293 cells were incubated with test solutions (test item in transport buffer 500 μL) for 40 min on a thermoshaker without shaking (PHMP, Fa. Grant Bio). Triplicates were performed for each test item. After incubation the cells were washed with 2 mL of cold PBS (+) buffer (Dulbeccos PBS+, Fa. Gibco). […] As a reference standard Gd-EOB-DTPA (gadoxetate) is used in the same well plate. The OATP1B3 HEK 293 uptake of the test compound is calculated relative to gadoxetate (resulting in the unit % of RC1).

A short description of series [3]: Partition coefficient (log P butanol/buffer). The class given is physicochemical. The settings on record: 50 mM Tris-HCl, pH 7.4, 10 μM, room temperature. As to the method: The partition coefficient P (log P=log(Cbutanol/Cbuffer)) was determined in buffered aqueous solution (10 μM of compound in 0.5 mL 50 mM Tris-HCl saturated with Butanol, pH 7.4) and 1-butanol 1+1 and the mixture was shaken for 2 h at room temperature (n=3). The Gd-concentrations in each phase. CObutano, and Cbuffer were measured by ICP-MS (The Chemistry of Contrast Agents in Medical Magnetic Resonance Imaging” 2nd Ed. Merbach A S, Helm L, Toth E, eds. Hoboken, NJ: Wiley 2013).

Series [4] in a line: No-observed-adverse-effect level (NOAEL) in mice. To be noted: intravenous bolus injection.

SMILES strings stand for the structures.

`CCCCOc1ccc(C[C@H]2CN(CC(=O)[O-])CCN(CC(=O)[O-])CCN(CC(=O)O)CCN2CC(=O)[O-])cc1.[Gd+3]` (single isomer, unassigned; stereoisomer 2) [Example 13] registered a Solubility in series [1] of over 43 mM. The “Uptake into OATP1B3-HEK 293 cells” value in series [2] is listed as 383 % of RC1.
Turning to `CCOc1ccc(CC2CN(CC(=O)[O-])CCN(CC(=O)[O-])CCN(CC(=O)O)CCN2CC(=O)[O-])cc1.[Gd+3]` (centres unmarked) [Example 7, Gadolinium-2,2′,2″-[10-(carboxymethyl)-2-(4-ethoxybenzyl)-1,4,7,10-tetraazacyclododecane-1,4,7-triyl]triacetate], in series [1], the Solubility is over 403 mM. In series [2], the “Uptake into OATP1B3-HEK 293 cells” value was 36 % of RC1. Besides, the “Log P” value in series [3] is recorded as −1.32. Also, in series [4], the NOAEL is 1.50 mmol Gd/kg bw.
In the case of `CCOCCOCCOCCOc1ccc(C[C@H]2CN(CC(=O)[O-])CCN(CC(=O)[O-])CCN(CC(=O)O)CCN2CC(=O)[O-])cc1.[Gd+3]` [Example 5, Gadolinium-2,2′,2″-[(2S)-10-(carboxymethyl)-2-(4-{2-[2-(2-ethoxyethoxy)ethoxy]ethoxy}benzyl)-1,4,7,10-tetraazacyclododecane-1,4,7-triyl]triacetate], the Solubility in series [1] is over 284 mM. Further, in series [2], the “Uptake into OATP1B3-HEK 293 cells” value is on record as 100 % of RC1. For the same molecule, the “Log P” value in series [3] was −1.74.
`COCCOCCOCCOc1ccc(C[C@@H]2CN(CC(=O)[O-])CCN(CC(=O)[O-])CCN(CC(=O)O)CCN2CC(=O)[O-])cc1.[Gd+3]` [Example 3, Gadolinium-2,2′,2″-[(2R)-10-(carboxymethyl)-2-(4-{2-[2-(2-methoxyethoxy)ethoxy]ethoxy}benzyl)-1,4,7,10-tetraazacyclododecane-1,4,7-triyl]triacetate] returned a Solubility in series [1] of over 166 mM. Besides, the “Uptake into OATP1B3-HEK 293 cells” value in series [2] is 28 % of RC1. Further, in series [3], the “Log P” value is on record as −2.05.
On the same counts, the results for `CCOc1ccc(C[C@H]2CN(CC(=O)[O-])CCN(CC(=O)[O-])CCN(CC(=O)O)CCN2CC(=O)[O-])cc1.[Gd+3]` (single isomer, unassigned; stereoisomer 1) [Example 10] are over 23 mM, 80 % of RC1 and −1.34.
On the same counts, the results for `CCCCOc1ccc(C[C@H]2CN(CC(=O)[O-])CCN(CC(=O)[O-])CCN(CC(=O)O)CCN2CC(=O)[O-])cc1.[Gd+3]` (single isomer, unassigned; stereoisomer 1) [Example 12] are 211 mM, 66 % of RC1 and −0.45.
As for `CCOCCOc1ccc(C[C@H]2CN(CC(=O)[O-])CCN(CC(=O)[O-])CCN(CC(=O)O)CCN2CC(=O)[O-])cc1.[Gd+3]` [Example 4, Gadolinium-2,2′,2″-{(2S)-10-(carboxymethyl)-2-[4-(2-ethoxyethoxy)benzyl]-1,4,7,10-tetraazacyclododecane-1,4,7-triyl}triacetate], the Solubility in series [1] is over 738 mM. Also, the “Uptake into OATP1B3-HEK 293 cells” value in series [2] is given as 103 % of RC1. The “Log P” value in series [3] is reported as −1.57. The NOAEL in series [4] amounted to 2.50 mmol Gd/kg bw.
In series [1], `CCOc1ccc(CC2CN(CC(=O)[O-])CCN(CC(=O)[O-])CCN(CC(=O)O)CCN2CC(=O)[O-])cc1.[Gd+3]` (single isomer, unassigned; diastereomer 2) [Example 9, Gadolinium-2,2′,2″-[10-(carboxymethyl)-2-(4-ethoxybenzyl)-1,4,7,10-tetraazacyclododecane-1,4,7-triyl]triacetate (racemic diastereomer 2)] gave a Solubility of over 145 mM. Moreover, in series [2], the “Uptake into OATP1B3-HEK 293 cells” value is recorded as 13 % of RC1. In addition, in series [3], the “Log P” value is −1.36.
Regarding `CCOCCOCCOc1ccc(C[C@H]2CN(CC(=O)[O-])CCN(CC(=O)[O-])CCN(CC(=O)O)CCN2CC(=O)[O-])nc1.[Gd+3]` [Example 6, Gadolinium 2,2′,2″-[(2S)-10-(carboxymethyl)-2-({5-[2-(2-ethoxyethoxy)ethoxy]pyridin-2-yl}methyl)-1,4,7,10-tetraazacyclododecane-1,4,7-triyl]triacetate], the “Uptake into OATP1B3-HEK 293 cells” value in series [2] is recorded as 32 % of RC1. Further, the “Log P” value in series [3] is listed as −1.96.
With `CCOc1ccc(CC2CN(CC(=O)[O-])CCN(CC(=O)[O-])CCN(CC(=O)O)CCN2CC(=O)[O-])cc1.[Gd+3]` (single isomer, unassigned; diastereomer 1) [Example 8, Gadolinium-2,2′,2″-[10-(carboxymethyl)-2-(4-ethoxybenzyl)-1,4,7,10-tetraazacyclododecane-1,4,7-triyl]triacetate (racemic diastereomer 1)], the “Uptake into OATP1B3-HEK 293 cells” value in series [2] is 94 % of RC1. In addition, the “Log P” value in series [3] is given as −1.33.
In turn, `CCOc1ccc(C[C@H]2CN(CC(=O)[O-])CCN(CC(=O)[O-])CCN(CC(=O)O)CCN2CC(=O)[O-])cc1.[Gd+3]` (single isomer, unassigned; stereoisomer 2) [Example 11] returned a Solubility in series [1] of over 146 mM. The “Uptake into OATP1B3-HEK 293 cells” value in series [2] is on record as 32 % of RC1. Besides, the “Log P” value in series [3] is listed as −1.37.
On the same counts, the results for `CCOCCOCCOc1ccc(C[C@H]2CN(CC(=O)[O-])CCN(CC(=O)[O-])CCN(CC(=O)O)CCN2CC(=O)[O-])cc1.[Gd+3]` [Example 2, Gadolinium-2,2′,2″-[(2S)-10-(carboxymethyl)-2-{4-[2-(2-ethoxyethoxy)ethoxy]benzyl}-1,4,7,10-tetraazacyclododecane-1,4,7-triyl]triacetate] are over 55 mM, 121 % of RC1 and −1.52.
In the same order, the values of `COCCOCCOCCOc1ccc(C[C@H]2CN(CC(=O)[O-])CCN(CC(=O)[O-])CCN(CC(=O)O)CCN2CC(=O)[O-])cc1.[Gd+3]` [Example 1, Gadolinium-2,2′,2″-[(2S)-10-(carboxymethyl)-2-(4-{2-[2-(2-methoxyethoxy)-ethoxy]ethoxy}benzyl)-1,4,7,10-tetraazacyclododecane-1,4,7-triyl]triacetate] are over 201 mM, 79 % of RC1 and −2.12.

In general, Solubility refers to the dissolved amount per volume that the medium holds. As usually defined, the Log P is a log measure of how a compound divides between an organic and an aqueous phase. Read a high Log P as higher lipophilicity. What is called NOAEL is the highest dose or exposure tested at which no adverse effect was seen.

The values above are taken from patent US20260365677A1, “NEW CONTRAST AGENTS FOR USE IN DIAGNOSTIC IMAGING” (Bayer Aktiengesellschaft, priority 2022, published 2026).
